# Several values for one entry are separate records, joined by “and”; a condition that tells them apart may be missing. Identical values can stand only once. After the bases stand the sugars from the 5' end (letter, count) and the backbone: PS all phosphorothioate, else s phosphorothioate and o phosphodiester by linkage. Methylation of C is not given here. e = 2'-O-(2-methoxyethyl) (MOE); k = constrained ethyl (cEt); d = 2'-deoxy (DNA); m = 2'-O-methyl
# Experiments:
# IRF4 = conditions: ASO
# HSD17B13 = conditions: ASO, HepaRG
Sequence,"target mRNA inhibition (IRF4; SK-MEL-28, 4 µM)",target mRNA inhibition (HSD17B13; 1 µM),other results
"AAAAGCCCAAAATAGG (sugars k3 d10 k3, PS)",-12%,,
"AAAAGGTTCCTGTCAC (sugars k3 d10 k3, PS)",,,"target mRNA inhibition (IRF4; MM.1R, 1 µM): -5%"
"AAACACCCCTTCTTGT (sugars k3 d10 k3, PS)",-13%,,
"AAACAGAGACGCGGTG (sugars k3 d10 k3, PS)",18%,,
"AAACCAGTACAGTCCA (sugars k3 d10 k3, PS)",,,"target mRNA inhibition (IRF4; MM.1R, 1 µM): -23%"
"AAACGAGAACGCACGG (sugars k3 d10 k3, PS)",,,"target mRNA inhibition (IRF4; MM.1R, 1 µM): 9%"
"AAACGAGTTGACACAG (sugars k3 d10 k3, PS)",20%,,
"AAACGCAGAGCCAGTA (sugars k3 d10 k3, PS)",37%,,
"AAACTATAATTGGCAC (sugars k3 d10 k3, PS)",30%,,
"AAAGAAACGAGTTGAC (sugars k3 d10 k3, PS)",,,"target mRNA inhibition (IRF4; MM.1R, 1 µM): 14%"
"AAAGACCCCAGCTATG (sugars k3 d10 k3, PS)",23%,,
"AAAGGGTAAGCACTGA (sugars k3 d10 k3, PS)",,,"target mRNA inhibition (IRF4; MM.1R, 1 µM): 19%"
"AAATAAGATCCCACGA (sugars k3 d10 k3, PS)",,,"target mRNA inhibition (IRF4; MM.1R, 1 µM): -7%"
"AAATCACTTGTCTTGG (sugars k3 d10 k3, PS)",49%,,
"AACAAAAGGTTCCCGC (sugars k3 d10 k3, PS)",40%,,
"AACAAATTAAAGAGCG (sugars k3 d10 k3, PS)",23%,,
"AACAATACTGTAAGGG (sugars k3 d10 k3, PS)",51%,,
"AACAATCCTGTACACT (sugars k3 d10 k3, PS)",22%,,
"AACACGGGAATTTCCA (sugars k3 d10 k3, PS)",73%,,
"AACAGATAACGAGGTG (sugars k3 d10 k3, PS)",-4%,,
"AACCAGCCCTTGCTGC (sugars k3 d10 k3, PS)",21%,,
"AACCGCTGAACTGAAA (sugars k3 d10 k3, PS)",13%,,
"AACCGCTGGCAGGTGG (sugars k3 d10 k3, PS)",40%,,
"AACCGGTAGAGTGAGA (sugars k3 d10 k3, PS)",6%,,
"AACGAGTTGACACAGG (sugars k3 d10 k3, PS)",55%,,

Sequence,"target mRNA inhibition (IRF4; SK-MEL-28, 4 µM)",target mRNA inhibition (HSD17B13; 1 µM),other results
"AACGGAAGTTTACACT (sugars k3 d10 k3, PS)",59%,,
"AACTAATGTCCCCAGG (sugars k3 d10 k3, PS)",,,"target mRNA inhibition (IRF4; MM.1R, 1 µM): -12%"
"AACTAGTCGACAGCTA (sugars k3 d10 k3, PS)",,,"target mRNA inhibition (IRF4; MM.1R, 1 µM): -7%"
"AACTGCAGCACCGTGG (sugars k3 d10 k3, PS)",45%,,
"AACTGGATTGATGTGA (sugars k3 d10 k3, PS)",77%,,
"AACTTATAGCACTCTC (sugars k3 d10 k3, PS)",28%,,
"AACTTTCACCTGTGGG (sugars k3 d10 k3, PS)",50%,,
"AACTTTTACCTGGTAT (sugars k3 d10 k3, PS)",28%,,
"AAGAAGCACTGGCATC (sugars k3 d10 k3, PS)",23%,,
"AAGAATGGCGCATAGG (sugars k3 d10 k3, PS)",81%,,"target mRNA inhibition (IRF4; MM.1R, 0.0625 µM): -1% and 19%; target mRNA inhibition (IRF4; MM.1R, 0.25 µM): 12% and 27%; target mRNA inhibition (IRF4; MM.1R, 1 µM): 28% and 42%; target mRNA inhibition (IRF4; MM.1R, 4 µM): 55% and 66%"
"AAGACTATTAGATAAG (sugars k3 d10 k3, PS)",22%,,
"AAGATCTCCATGGTGC (sugars k3 d10 k3, PS)",,,"target mRNA inhibition (IRF4; MM.1R, 0.0625 µM): 4%; target mRNA inhibition (IRF4; MM.1R, 0.25 µM): 10%; target mRNA inhibition (IRF4; MM.1R, 1 µM): 39% and 29%; target mRNA inhibition (IRF4; MM.1R, 4 µM): 56%"
"AAGCAAGTCGGTCCAC (sugars k3 d10 k3, PS)",32%,,
"AAGCACTGGCATCGAG (sugars k3 d10 k3, PS)",27%,,
"AAGCAGTGATGTCAGG (sugars k2 d9 e3 k2, PS)",,,"target mRNA inhibition (IRF4; MM.1R, 1 µM): 62% and 51%"
"AAGCAGTGATGTCAGG (sugars k3 d10 k3, PS)",,,"target mRNA inhibition (IRF4; MM.1R, 0.0625 µM): 8%; target mRNA inhibition (IRF4; MM.1R, 0.25 µM): 25%; target mRNA inhibition (IRF4; MM.1R, 1 µM): 66% and 65%; target mRNA inhibition (IRF4; MM.1R, 4 µM): 75%"
"TTATTGTAGGGATTGA (sugars k3 d10 k3, PS)",,63%,
"TTCAACTAAACATGAC (sugars k3 d10 k3, PS)",,55%,
"TTCACCAACGACTCCA (sugars k3 d10 k3, PS)",,62%,
"TTCAGTTAGCAGCTAA (sugars k3 d10 k3, PS)",,72%,target mRNA inhibition (HSD17B13; 0.02 µM): 0%; target mRNA inhibition (HSD17B13; 0.078 µM): 0%; target mRNA inhibition (HSD17B13; 0.313 µM): 26%; target mRNA inhibition (HSD17B13; 1.25 µM): 63%; target mRNA inhibition (HSD17B13; 5 µM): 82%
"TTCATAAGTAGTCTGC (sugars k3 d10 k3, PS)",,64%,
"TTCATAGTGGACTTCA (sugars k3 d10 k3, PS)",,51%,
"TTCCGTCTCACAATCT (sugars k3 d10 k3, PS)",,79%,target mRNA inhibition (HSD17B13; 0.02 µM): 10%; target mRNA inhibition (HSD17B13; 0.078 µM): 13%; target mRNA inhibition (HSD17B13; 0.313 µM): 49%; target mRNA inhibition (HSD17B13; 1.25 µM): 83%; target mRNA inhibition (HSD17B13; 5 µM): 80%
"TTCTAGGTCAGTAGAG (sugars k3 d10 k3, PS)",,58%,
"TTCTATTAGTTGGCCT (sugars k3 d10 k3, PS)",,28%,

Sequence,"target mRNA inhibition (IRF4; SK-MEL-28, 4 µM)",target mRNA inhibition (HSD17B13; 1 µM),other results
"TTCTCTTGGGTCCATT (sugars k3 d10 k3, PS)",,44%,
"TTCTGATGTCAGACCT (sugars k3 d10 k3, PS)",,42%,
"TTCTGTGGCATGGCTA (sugars k3 d1 m1 d8 k3, PS)",,65%,
"TTCTGTGGCATGGCTA (sugars k3 d9 k3 e1, PS)",,59%,
"TTGAACAGTCTTAAAC (sugars k3 d1 m1 d8 k3, PS)",,11%,
"TTGAACAGTCTTAAAC (sugars kkdddddddddkekek, PS)",,37%,
"TTGAATAGCAAGCCAA (sugars k3 d9 k3 e1, PS)",,33%,
"TTGACATAACTTCATA (sugars k3 d10 k3, PS)",,15%,
"TTGACCTCAAATGTCT (sugars k3 d10 k3, PS)",,0%,
"TTGACTGCTGCTAGTG (sugars k3 d1 m1 d8 k3, PS)",,40%,
"TTGAGAGAACTTATAC (sugars k3 d10 k3, PS)",,21%,
"TTGAGATAAAGCTGCC (sugars kkdddddddddkekek, PS)",,2%,
"TTGAGATAAAGCTGCC (sugars kkkdddddkdddkkke, PS)",,43%,
"TTGAGTAGTGTAAGCT (sugars k3 d9 k3 e1, PS)",,40%,
"TTGAGTTCTCCACTGC (sugars k3 d1 m1 d8 k3, PS)",,18%,
"TTGATATACGATGGAA (sugars k3 d10 k3, PS)",,38%,
"TTGATCTCTTAGCTGT (sugars k3 d10 k3, PS)",,74%,
"TTGCAGAAATTCACCT (sugars k3 d1 m1 d8 k3, PS)",,29%,
"TTGCAGAAATTCACCT (sugars kkdddddddddkekek, PS)",,46%,
"TTGCAGTTATTAGAAG (sugars kkdddddddddkekek, PS)",,27%,
"TTGCTGGAACAATATG (sugars k3 d10 k3, PS)",,20%,
"TTGGAATGCTACTTGA (sugars k3 d10 k3, PS)",,72%,target mRNA inhibition (HSD17B13; 0.02 µM): 20%; target mRNA inhibition (HSD17B13; 0.078 µM): 33%; target mRNA inhibition (HSD17B13; 0.313 µM): 47%; target mRNA inhibition (HSD17B13; 1.25 µM): 80%; target mRNA inhibition (HSD17B13; 5 µM): 83%
"TTGGTAAGTATTCCAT (sugars k3 d10 k3, PS)",,20%,
"TTGGTGAACCCAGTAT (sugars k3 d10 k3, PS)",,31%,
"TTGGTGGACTTCAGAG (sugars k3 d10 k3, PS)",,8%,

Sequence,"target mRNA inhibition (IRF4; SK-MEL-28, 4 µM)",target mRNA inhibition (HSD17B13; 1 µM),other results
"TTGTAATCTTGAGGCA (sugars k3 d10 k3, PS)",,27%,
"TTGTACCCTGTTCTCA (sugars k3 d10 k3, PS)",,64%,
"TTGTTACATCACCCAC (sugars k3 d10 k3, PS)",,34%,
"TTTAAAATAGAGTCGG (sugars k3 d9 k3 e1, PS)",,58%,
"TTTAAAATAGAGTCGG (sugars k3 d10 k3, PS)",,69%,target mRNA inhibition (HSD17B13; 0.02 µM): 0%; target mRNA inhibition (HSD17B13; 0.078 µM): 0%; target mRNA inhibition (HSD17B13; 0.313 µM): 1%; target mRNA inhibition (HSD17B13; 1.25 µM): 48%; target mRNA inhibition (HSD17B13; 5 µM): 77%
"TTTAGAATACGCTGAG (sugars k3 d10 k3, PS)",,44%,
"TTTAGTATTTGGGTGT (sugars k3 d10 k3, PS)",,21%,
"TTTAGTCAGGTAGAGT (sugars k3 d10 k3, PS)",,30%,
"TTTAGTTAGAATAGTC (sugars k3 d10 k3, PS)",,15%,
"TTTCATAGCTCACTTA (sugars k3 d10 k3, PS)",,16%,
"TTTCATATCCAGTAGG (sugars k3 d10 k3, PS)",,36%,
"TTTCGCTACTGTAGGC (sugars k3 d10 k3, PS)",,62%,
"TTTTAACTACCCTCAC (sugars k3 d10 k3, PS)",,2%,
"TTTTAAGAGGCATGAA (sugars k3 d10 k3, PS)",,53%,
"TTTTACTGGGATACTA (sugars k3 d10 k3, PS)",,27%,
"TTTTAGGGAGGTAGCT (sugars k3 d10 k3, PS)",,39%,
"TTTTAGTCAGGTAGAG (sugars k3 d10 k3, PS)",,3%,
"TTTTATAGACTGGGTA (sugars k3 d10 k3, PS)",,53%,
"TTTTATTGGGCCCAAT (sugars k3 d10 k3, PS)",,18%,
"TTTTTAAGAGGCATGA (sugars k3 d10 k3, PS)",,60%,
"TTTTTAATACGACTTC (sugars k3 d10 k3, PS)",,52%,
"TTTTTATTGGGCCCAA (sugars k3 d10 k3, PS)",,51%,
"TTTTTGAACCGTATTC (sugars k3 d10 k3, PS)",,56%,
"TTTTTGGACAAATGCC (sugars k3 d10 k3, PS)",,50%,
